Experimental findings from PMC10848157, “Assessing NH300094, a novel dopamine and serotonin receptor modulator with cognitive enhancement property for treating schizophrenia” (Frontiers in Pharmacology, 2024) are described below.

One series concerns the target T1, Alpha1A receptor (Homo sapiens, UniProt P35348).
T1 construct: expressed in transfected cells; host or cells: HEK293/Alpha1A (constructed by Shanghai shujing Biopharma)
T1 sequence (P35348 1-466): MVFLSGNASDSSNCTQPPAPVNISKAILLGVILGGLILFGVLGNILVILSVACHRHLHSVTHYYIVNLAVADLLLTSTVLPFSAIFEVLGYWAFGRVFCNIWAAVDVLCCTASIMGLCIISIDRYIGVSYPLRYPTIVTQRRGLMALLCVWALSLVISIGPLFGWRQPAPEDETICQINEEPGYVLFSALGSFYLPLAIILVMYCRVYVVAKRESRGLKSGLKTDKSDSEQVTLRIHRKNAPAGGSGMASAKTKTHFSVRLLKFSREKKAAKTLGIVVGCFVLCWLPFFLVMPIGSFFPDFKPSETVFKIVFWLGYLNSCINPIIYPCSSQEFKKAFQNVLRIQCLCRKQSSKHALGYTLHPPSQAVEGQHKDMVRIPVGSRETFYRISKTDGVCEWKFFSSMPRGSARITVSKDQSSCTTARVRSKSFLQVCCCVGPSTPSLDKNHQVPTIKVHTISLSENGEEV
Description: Alpha1A receptor functional assay (calcium flow, FLIPR). The series is classed as cell-based. Conditions: HEK293/Alpha1A cells, read-out: Alpha1AR, IC50.

A further series concerns the target T2, M1 receptor (Homo sapiens, UniProt P11229).
T2 sequence (P11229 1-460): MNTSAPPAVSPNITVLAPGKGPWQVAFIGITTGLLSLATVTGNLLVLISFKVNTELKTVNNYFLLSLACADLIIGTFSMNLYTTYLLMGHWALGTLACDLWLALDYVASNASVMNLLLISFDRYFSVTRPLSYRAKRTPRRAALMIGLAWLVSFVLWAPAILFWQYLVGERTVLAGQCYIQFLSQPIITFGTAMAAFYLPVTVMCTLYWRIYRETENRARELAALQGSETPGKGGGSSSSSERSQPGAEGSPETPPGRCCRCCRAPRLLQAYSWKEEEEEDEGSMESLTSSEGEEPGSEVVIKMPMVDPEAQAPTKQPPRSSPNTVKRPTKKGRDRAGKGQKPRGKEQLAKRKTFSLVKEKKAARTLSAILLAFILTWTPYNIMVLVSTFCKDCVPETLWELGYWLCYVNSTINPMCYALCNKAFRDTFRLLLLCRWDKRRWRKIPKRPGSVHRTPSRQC
The series is described as follows: M1 receptor functional assay (calcium flow, FLIPR). The conditions noted are these: CHO-K1/M1 cells, read-out: M1R, IC50. It is filed as cell-based.

A further series deals with 5-HT1B receptor (Homo sapiens, UniProt P28222). The series is described as follows: 5-HT1B receptor functional assay (cAMP assay, inverse agonist). It is filed as cell-based. The conditions noted are these: inverse agonist activity, CHO-K1/5-HT1B cells, read-out: 5HT1BR, EC50. In general terms: Cyclic AMP is a second messenger, typically raised through Gs and lowered through Gi signalling.

Series [1] relates to male ICR mice. Description: Novel object recognition in scopolamine hydrobromide-treated mice. The series is classed as in vivo. Conditions: NOR; NH300094 0.01–0.16 mg/kg p.o.; risperidone 0.04, 0.08, 0.16 mg/kg p.o.; rivastigmine 0.3 and 1 mg/kg i.p. The protocol: The procedure was modified according to Bevins and Besheer ([Bevins and Besheer, 2006]). […] The tests were conducted in a 50 cm × 35 cm × 20 cm chamber and the mice behavior was recording using a Hikvision video recording system (H.265, Hikvision Digtial Technology Co., Ltd.). All mice were allowed to freely explore the chamber environment for 10 min, and there were no objects placed in the chamber during acclimatization period. […] Rivastigmine hydrogen tartrate group (0.1, 0.3 and 1 mg/kg, i.p.) were dosed simultaneously with scopolamine hydrobromide (3 mg/kg, i.p.). Training was conducted 30 min post scopolamine hydrobromide administration by placing a single mouse into a chamber for 10 min with two exactly same objects positioned in the center of chamber. (The distance between the two objects was more than 20 cm). […]
The experimental video was analyzed to record the time of mice exploring the new and old objects, respectively, and the differentiation index (DI) was calculated as follows: DI = new object exploration time/(new object exploration time + old object exploration time), which was used as the main evaluation index of discrimination ability. […] If the total exploration time of the new and old objects was less than 20 s, the total 10 min of video would be analyzed. […] The movement of circling without sniffing or sitting on the object was not recorded as exploration behavior.

Series [2] can be described thus: Pharmacokinetics assay in rats. The series is classed as in vivo, male SD rats. On the procedure: Six male SD rats (7 weeks of age) were randomly divided into two groups with three rats per group. Animals were fasted overnight and had free access to water before dosing. For the intravenous group, male SD rats were administered NH300094 by single intravenous bolus administration at a dose of 2 mg/kg. For the oral group, male SD rats were dosed orally with NH300094 at a dose of 10 mg/kg. Serial blood samples were collected at different time points (Pre-dose, 0.033, 0.083, 0.25, 0.5, 1, 2, 4, 6, 8, 12 and 24 h for the intravenous group; Pre-dose, 0.167, 0.333, 0.5, 1, 2, 4, 6, 8, 10, 12 and 24 h for the oral group) via jugular vein puncture from each study animal. All blood samples were transferred into commercial tube containing K2-EDTA. Plasma samples were prepared by centrifuging the blood samples at approximately 4°C, 3,200×g for 15 min, and then stored at −70°C until analysis (Supplementary Materials). The pharmacokinetic parameters were calculated using WinNonlin software (Version 6.3) according to non-compartmental model.

Series [3] has as its system male ICR mice. The series is described as follows: Forced swimming test in mice. The series is classed as in vivo. The conditions noted are these: single oral dose; NH300094 0.03 mg/kg; risperidone 0.01, 0.03 and 0.1 mg/kg. The protocol: Each mouse was required to swim in an open cylindrical container (height of 25 cm, diameter of 10 cm) after intragastric administration of compounds 1 h. The container contained 1.2 L of water with temperature maintained at 24°C ± 1°C. The test used a computerized analysis and tracking system (Clever Sys Inc., Leesburg, VA) to recorded the duration of immobility (last 4 min of a total time of 6 min) about the testing mice.

Setting [4] is: rat, plasma, intravenous, 2 mg/kg, male SD rats.
The mark [5] stands for this setting: rat, plasma, oral, 10 mg/kg, male SD rats.

Chain of 5-HT1B receptor (P28222 whole entry): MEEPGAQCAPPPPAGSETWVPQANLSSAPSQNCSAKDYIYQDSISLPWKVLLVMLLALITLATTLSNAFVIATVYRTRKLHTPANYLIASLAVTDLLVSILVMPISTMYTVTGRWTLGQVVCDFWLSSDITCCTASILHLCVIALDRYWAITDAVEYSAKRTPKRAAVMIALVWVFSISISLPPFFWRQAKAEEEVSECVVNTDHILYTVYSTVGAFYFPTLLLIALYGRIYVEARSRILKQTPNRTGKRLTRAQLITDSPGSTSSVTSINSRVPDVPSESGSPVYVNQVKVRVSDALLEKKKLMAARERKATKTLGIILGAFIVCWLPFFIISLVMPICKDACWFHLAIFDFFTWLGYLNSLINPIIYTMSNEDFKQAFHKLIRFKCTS

What is called IC50 is the concentration at which inhibition is half-maximal. The EC50 is the midpoint of the concentration-response curve. A word on the bioavailability: it is the share of a dose that reaches the circulation, judged against a reference dose that is usually intravenous. The term AUC(0-inf) denotes total exposure, with the tail of the curve extrapolated. A low value points to low exposure. By AUC(0-t) is commonly meant exposure summed from dosing to a finite time, without extrapolation to infinity. A higher AUC(0-t) goes with high exposure. By clearance is commonly meant the volume of plasma or blood freed of the substance per unit of time. High values mean a high capacity for elimination, low ones a low capacity for elimination. The half-life is how long it takes for the measured level to halve. Low readings indicate fast loss, high ones slow loss. The Cmax is the highest concentration seen after dosing. As a reminder, the Tmax is the time from dosing to the highest level. Turning to `O=C1CCc2cc(OCCCN3CCC(c4noc5cc(F)ccc45)CC3)cc3c2N1CC3` [NH300094, 8-(3-(4-(6-fluorobenzo [d]isoxazol-3-yl)piperidin-1-yl)propoxy)-1,2,5,6-tetrahydro-4H-pyrrolo [3,2,1-ij] quinolin-4-one], the IC50 on Alpha1A receptor stood at 28.5 nM. In addition, the IC50 at M1 receptor stood at 3520 nM. For the same molecule, at 5-HT1B receptor, the EC50 stood at 28.4 ± 12.5 nM. Also, in the series with male ICR mice [1], the “effect on differentiation index (DI) of scopolamine hydrobromide-treated mice” value is given as “increased DI index”. In series [2] (male, SD, rat, plasma, oral, 10 mg/kg, oral 10 mg/kg vs intravenous 2 mg/kg, male SD rats), the bioavailability was roughly 87.6%. Further, in series [2] (oral administration, rats (rounded value in text)), the “area under the concentration time-curves for time zero to infinity” value stood at 14800 ng/mL*h. In series [2] (setting [4]), this molecule yielded an AUC(0-inf) of 3380 ng·h/mL, an AUC(0-t) of 3370 ng·h/mL, a C0 of 10800 ng/mL and a clearance of 9.91 mL/min/kg. This molecule also showed a half-life in series [2] (setting [4]) of 1.73 h. Moreover, in series [2] (rat, plasma, intravenous, 2 mg/kg, male SD rats, read-out: Vdss), the Vd came out at 0.379 L/kg. In addition, in series [2] (setting [5]), the AUC(0-inf) stood at 14800 ng·h/mL, the AUC(0-t) amounted to 14800 ng·h/mL, the Cmax turned out to be 8710 ng/mL and the time to peak (Tmax) was found to be 0.389 h. In addition, the half-life in series [2] (setting [5]) is 1.28 h. For the same molecule, the “effect on immobility time in the FST” value in the series with male ICR mice [3] is listed as “decreased immobility time”.
